Results published in ChEMBL document CHEMBL1938382, “Fragment-based discovery of indole inhibitors of matrix metalloproteinase-13” (J Med Chem, 2011).
Converted amounts (≈) assume the structure as drawn.

Assays:
[1] = biological target: 72 kDa type IV collagenase (Homo sapiens, UniProt P08253); experiment: Inhibition of human recombinant MMP2 after 30 mins by fluorimetry
[2] = biological target: Matrix metalloproteinase-14 (Homo sapiens, UniProt P50281); experiment: Inhibition of human recombinant MMP14 after 60 mins by fluorimetry
Collagenase 3 [3] = biological target: T1, Collagenase 3 (Homo sapiens, UniProt P45452)
Description: Inhibition of human MMP13 expressed in Escherichia coli after 30 mins by fluorimetry

Collagenase 3 [4] = biological target: T1, Collagenase 3; experiment: Inhibition of MMP13 after 30 mins by fluorimetry in the presence of 1.25% human serum albumin
Liver microsomes = experiment: Drug metabolism in Sprague-Dawley rat liver microsomes assessed as ester hydrolysis product formation; type: ADME, Microsome
Cytochrome P450 3A4 = Cytochrome P450 3A4 (Homo sapiens, UniProt P08684); experiment: Inhibition of human recombinant CYP3A4 using 7-benzyloxy-4-trifluoromethylcoumarin as substrate after 30 mins by fluorimetry; type: ADME
Chain of Cytochrome P450 3A4 (P08684 whole entry): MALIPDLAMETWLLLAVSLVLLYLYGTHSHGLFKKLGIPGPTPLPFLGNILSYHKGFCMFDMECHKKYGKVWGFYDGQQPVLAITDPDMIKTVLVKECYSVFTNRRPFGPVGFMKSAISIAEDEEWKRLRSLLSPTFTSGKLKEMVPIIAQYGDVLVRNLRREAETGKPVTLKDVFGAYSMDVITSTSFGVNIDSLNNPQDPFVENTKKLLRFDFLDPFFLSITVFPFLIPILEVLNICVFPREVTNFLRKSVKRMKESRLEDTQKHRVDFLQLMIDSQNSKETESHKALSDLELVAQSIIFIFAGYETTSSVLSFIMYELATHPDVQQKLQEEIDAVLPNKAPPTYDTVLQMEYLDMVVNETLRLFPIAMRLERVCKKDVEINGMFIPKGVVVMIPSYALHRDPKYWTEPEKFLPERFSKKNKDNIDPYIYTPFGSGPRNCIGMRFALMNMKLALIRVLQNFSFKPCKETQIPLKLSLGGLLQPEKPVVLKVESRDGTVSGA

Collagenase 3 [5] = biological target: T1, Collagenase 3; experiment: Inhibition of […]-activated MMP13-mediated degradation of FITC-labeled type2 collagen after 1.5 hrs by fluorimetry
Collagenase 3 [6] = biological target: T1, Collagenase 3; experiment: Inhibition of human MMP13-mediated degradation of bovine nasal cartilage after 2 hrs by ELISA in the presence of 10% human serum
[7] = Aqueous solubility of the compound at pH 7.4 by UV spectrophotometry; type: physicochemical; settings: buffer
[8] = Lipophilicity, log P of the compound; type: physicochemical; settings: octanol/water
Rattus norvegicus [9] = experiment: AUC in Sprague-Dawley rat at 1 mg/kg, iv; type: ADME, organism-based, Plasma; parameters: dose 1 mg/kg, route intravenous; settings: in vivo
Rattus norvegicus [10] = experiment: Volume of distribution at steady state in Sprague-Dawley rat at 1 mg/kg, iv and 10 mg/kg, po; type: ADME, organism-based; settings: in vivo
[11] = Clearance in Sprague-Dawley rat at 1 mg/kg, iv and 10 mg/kg, po; type: ADME, organism-based; settings: in vivo
[12] = Half life in Sprague-Dawley rat at 1 mg/kg, iv and 10 mg/kg, po; type: ADME, organism-based; settings: in vivo
[13] = Cmax in Sprague-Dawley rat at 1 mg/kg, iv and 10 mg/kg, po; type: ADME, organism-based; settings: in vivo
Rattus norvegicus [14] = experiment: AUC in Sprague-Dawley rat at 10 mg/kg, po; type: ADME, organism-based, Plasma; parameters: dose 10 mg/kg, route oral; settings: in vivo
[15] = Oral bioavailability in Sprague-Dawley rat at 10 mg/kg; type: ADME, organism-based; settings: in vivo
Interstitial collagenase = biological target: T2, Interstitial collagenase (Homo sapiens, UniProt P03956); experiment: Inhibition of human recombinant MMP1 after 30 mins by fluorimetry
T2 sequence (P03956 whole entry): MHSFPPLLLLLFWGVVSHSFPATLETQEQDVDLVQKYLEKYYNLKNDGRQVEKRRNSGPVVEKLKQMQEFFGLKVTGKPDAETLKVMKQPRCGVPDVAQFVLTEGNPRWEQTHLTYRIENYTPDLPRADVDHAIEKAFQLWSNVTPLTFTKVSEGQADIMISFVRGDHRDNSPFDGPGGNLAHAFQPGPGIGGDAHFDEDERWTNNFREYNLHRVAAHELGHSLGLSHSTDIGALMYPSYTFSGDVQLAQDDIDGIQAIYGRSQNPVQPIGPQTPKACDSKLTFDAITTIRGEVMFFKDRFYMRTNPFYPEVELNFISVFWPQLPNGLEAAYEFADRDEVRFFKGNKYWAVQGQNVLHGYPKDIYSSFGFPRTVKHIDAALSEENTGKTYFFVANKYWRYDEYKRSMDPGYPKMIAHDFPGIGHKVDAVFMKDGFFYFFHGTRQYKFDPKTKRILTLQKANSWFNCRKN

Stromelysin-1 = Stromelysin-1 (Homo sapiens, UniProt P08254); experiment: Inhibition of human recombinant MMP3 after 30 mins by fluorimetry
Chain of Stromelysin-1 (P08254 whole entry): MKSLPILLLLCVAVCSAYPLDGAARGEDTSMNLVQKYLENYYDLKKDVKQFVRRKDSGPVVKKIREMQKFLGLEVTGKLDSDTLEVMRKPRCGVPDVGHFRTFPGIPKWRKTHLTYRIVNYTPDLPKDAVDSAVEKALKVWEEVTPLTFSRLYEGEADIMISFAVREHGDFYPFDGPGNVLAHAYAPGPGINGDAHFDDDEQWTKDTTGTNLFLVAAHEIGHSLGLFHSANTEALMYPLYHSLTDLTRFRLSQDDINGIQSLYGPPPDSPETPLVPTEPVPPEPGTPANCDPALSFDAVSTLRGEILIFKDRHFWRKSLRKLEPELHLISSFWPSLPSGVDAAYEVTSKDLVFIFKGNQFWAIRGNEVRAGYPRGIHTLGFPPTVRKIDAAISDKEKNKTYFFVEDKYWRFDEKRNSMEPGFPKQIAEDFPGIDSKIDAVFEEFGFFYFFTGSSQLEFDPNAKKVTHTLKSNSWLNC

Matrilysin = biological target: T3, Matrilysin (Homo sapiens, UniProt P09237); experiment: Inhibition of human recombinant MMP7 after 30 mins by fluorimetry
T3 sequence (P09237 whole entry): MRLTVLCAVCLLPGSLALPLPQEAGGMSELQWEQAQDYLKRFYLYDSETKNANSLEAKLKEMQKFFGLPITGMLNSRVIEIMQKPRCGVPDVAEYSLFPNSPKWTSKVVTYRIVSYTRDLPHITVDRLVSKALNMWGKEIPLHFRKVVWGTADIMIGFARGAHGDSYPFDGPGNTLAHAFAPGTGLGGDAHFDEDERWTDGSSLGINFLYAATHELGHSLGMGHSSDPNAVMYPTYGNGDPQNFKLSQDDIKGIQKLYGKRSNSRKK

Neutrophil collagenase = Neutrophil collagenase (Homo sapiens, UniProt P22894); experiment: Inhibition of human recombinant MMP8 after 30 mins by fluorimetry
Chain of Neutrophil collagenase (P22894 whole entry): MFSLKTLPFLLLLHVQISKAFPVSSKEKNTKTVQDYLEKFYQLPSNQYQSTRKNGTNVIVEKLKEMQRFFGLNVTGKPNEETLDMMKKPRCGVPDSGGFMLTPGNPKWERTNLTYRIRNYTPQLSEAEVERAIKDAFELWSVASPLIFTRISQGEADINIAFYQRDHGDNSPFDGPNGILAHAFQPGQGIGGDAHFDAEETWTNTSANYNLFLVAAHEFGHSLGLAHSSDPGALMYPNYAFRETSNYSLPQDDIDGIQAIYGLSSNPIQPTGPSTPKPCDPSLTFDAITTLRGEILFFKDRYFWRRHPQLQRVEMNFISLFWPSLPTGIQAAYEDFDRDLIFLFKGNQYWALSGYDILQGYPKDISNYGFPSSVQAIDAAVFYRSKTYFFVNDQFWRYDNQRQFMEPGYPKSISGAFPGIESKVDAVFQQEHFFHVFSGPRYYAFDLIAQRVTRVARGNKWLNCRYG

[16] = biological target: Matrix metalloproteinase-9 (Homo sapiens, UniProt P14780); experiment: Inhibition of human recombinant MMP9 after 30 mins by fluorimetry
Chain of Matrix metalloproteinase-9 (P14780 whole entry): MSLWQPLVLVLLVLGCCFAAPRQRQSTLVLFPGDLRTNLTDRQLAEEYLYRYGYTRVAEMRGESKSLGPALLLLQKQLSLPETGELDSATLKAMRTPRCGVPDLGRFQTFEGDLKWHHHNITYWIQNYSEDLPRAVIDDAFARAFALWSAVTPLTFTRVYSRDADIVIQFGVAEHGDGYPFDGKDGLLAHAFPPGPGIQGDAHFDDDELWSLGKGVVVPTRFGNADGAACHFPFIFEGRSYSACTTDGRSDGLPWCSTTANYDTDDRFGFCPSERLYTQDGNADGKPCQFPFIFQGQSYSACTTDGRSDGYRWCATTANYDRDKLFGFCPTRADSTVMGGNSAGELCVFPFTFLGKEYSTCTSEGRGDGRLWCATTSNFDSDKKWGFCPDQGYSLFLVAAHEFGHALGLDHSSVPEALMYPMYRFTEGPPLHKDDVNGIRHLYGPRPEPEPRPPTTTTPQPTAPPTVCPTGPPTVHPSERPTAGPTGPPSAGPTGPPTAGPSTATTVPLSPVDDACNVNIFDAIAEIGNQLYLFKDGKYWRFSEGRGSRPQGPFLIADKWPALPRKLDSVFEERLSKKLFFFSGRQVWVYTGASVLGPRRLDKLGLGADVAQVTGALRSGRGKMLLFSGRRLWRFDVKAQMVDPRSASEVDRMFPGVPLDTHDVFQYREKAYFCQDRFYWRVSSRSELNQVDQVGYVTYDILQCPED

Stromelysin-2 = Stromelysin-2 (Homo sapiens, UniProt P09238); experiment: Inhibition of human recombinant MMP10 after 30 mins by fluorimetry
Chain of Stromelysin-2 (P09238 whole entry): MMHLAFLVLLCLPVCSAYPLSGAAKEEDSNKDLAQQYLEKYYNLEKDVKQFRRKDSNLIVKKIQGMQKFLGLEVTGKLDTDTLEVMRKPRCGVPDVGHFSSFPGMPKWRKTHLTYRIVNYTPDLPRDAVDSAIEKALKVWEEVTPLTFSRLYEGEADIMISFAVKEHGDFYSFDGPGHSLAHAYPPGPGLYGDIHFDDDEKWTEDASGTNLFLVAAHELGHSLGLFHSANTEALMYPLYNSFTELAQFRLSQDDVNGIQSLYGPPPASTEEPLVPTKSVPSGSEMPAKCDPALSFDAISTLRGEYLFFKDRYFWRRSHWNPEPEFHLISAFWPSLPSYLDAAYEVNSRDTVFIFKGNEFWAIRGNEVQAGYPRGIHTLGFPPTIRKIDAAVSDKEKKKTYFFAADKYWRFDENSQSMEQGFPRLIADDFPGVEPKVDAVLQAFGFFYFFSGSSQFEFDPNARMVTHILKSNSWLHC

[17] = biological target: Macrophage metalloelastase (Homo sapiens, UniProt P39900); experiment: Inhibition of human recombinant MMP12 after 30 mins by fluorimetry
Chain of Macrophage metalloelastase (P39900 whole entry): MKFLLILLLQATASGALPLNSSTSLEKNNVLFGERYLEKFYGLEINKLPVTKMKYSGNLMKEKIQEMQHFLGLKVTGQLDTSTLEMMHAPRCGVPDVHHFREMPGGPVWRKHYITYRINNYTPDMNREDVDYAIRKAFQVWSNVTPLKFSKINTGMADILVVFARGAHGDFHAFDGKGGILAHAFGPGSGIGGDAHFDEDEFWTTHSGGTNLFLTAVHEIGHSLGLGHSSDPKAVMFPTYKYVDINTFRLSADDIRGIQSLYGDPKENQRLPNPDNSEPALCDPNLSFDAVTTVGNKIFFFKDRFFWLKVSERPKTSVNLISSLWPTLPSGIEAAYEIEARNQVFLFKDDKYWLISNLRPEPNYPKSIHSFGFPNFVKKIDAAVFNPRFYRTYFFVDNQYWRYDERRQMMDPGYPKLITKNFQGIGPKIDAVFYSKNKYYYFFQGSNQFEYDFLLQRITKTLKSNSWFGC

Cytochrome P450 2C9 = Cytochrome P450 2C9 (Homo sapiens, UniProt P11712); experiment: Inhibition of human recombinant CYP2C9 using 7-methoxy-4-trifluoromethylcoumarin as substrate after 45 mins by fluorimetry; type: ADME
Chain of Cytochrome P450 2C9 (P11712 whole entry): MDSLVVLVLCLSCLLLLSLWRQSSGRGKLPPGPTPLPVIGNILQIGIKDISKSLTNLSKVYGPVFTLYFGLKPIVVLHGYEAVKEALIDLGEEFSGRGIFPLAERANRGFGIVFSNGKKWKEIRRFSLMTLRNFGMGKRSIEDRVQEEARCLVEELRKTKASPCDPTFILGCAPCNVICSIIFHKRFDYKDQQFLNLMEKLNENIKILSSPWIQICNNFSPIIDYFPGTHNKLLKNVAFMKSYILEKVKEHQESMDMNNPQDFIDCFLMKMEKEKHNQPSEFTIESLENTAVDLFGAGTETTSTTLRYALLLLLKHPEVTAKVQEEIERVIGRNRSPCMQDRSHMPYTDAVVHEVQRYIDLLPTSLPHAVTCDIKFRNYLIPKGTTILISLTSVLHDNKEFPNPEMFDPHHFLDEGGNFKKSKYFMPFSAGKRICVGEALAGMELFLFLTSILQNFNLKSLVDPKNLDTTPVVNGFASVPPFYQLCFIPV

[18] = Metabolic stability in human liver microsomes after 5 mins relative to human hepatic blood flow; type: ADME, Microsome; settings: read-out: Stability

Chain of 72 kDa type IV collagenase (P08253 whole entry): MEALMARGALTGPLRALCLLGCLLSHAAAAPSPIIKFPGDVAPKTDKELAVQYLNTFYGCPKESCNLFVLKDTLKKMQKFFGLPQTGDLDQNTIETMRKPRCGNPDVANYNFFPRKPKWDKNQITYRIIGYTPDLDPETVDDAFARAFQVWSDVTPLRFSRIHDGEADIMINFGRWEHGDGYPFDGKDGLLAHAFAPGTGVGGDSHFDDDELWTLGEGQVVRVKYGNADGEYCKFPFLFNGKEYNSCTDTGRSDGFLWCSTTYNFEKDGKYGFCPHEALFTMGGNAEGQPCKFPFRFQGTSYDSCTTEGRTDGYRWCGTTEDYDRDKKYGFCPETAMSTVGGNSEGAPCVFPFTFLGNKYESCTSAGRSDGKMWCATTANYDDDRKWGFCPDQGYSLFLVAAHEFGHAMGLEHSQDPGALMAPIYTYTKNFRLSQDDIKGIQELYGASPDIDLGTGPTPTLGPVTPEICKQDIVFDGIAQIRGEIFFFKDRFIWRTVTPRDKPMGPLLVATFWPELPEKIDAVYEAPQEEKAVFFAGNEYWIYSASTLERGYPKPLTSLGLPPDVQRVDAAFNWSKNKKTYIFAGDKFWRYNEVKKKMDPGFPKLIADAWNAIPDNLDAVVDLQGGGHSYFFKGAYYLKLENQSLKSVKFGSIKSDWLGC

Structure (SMILES)	IC50 [1] [µM]	IC50 [2] [µM]	IC50 (Collagenase 3 [3]) [µM]	IC50 (Collagenase 3 [4]) [µM]	other results
CCOC(=O)c1cc2cc(-c3ccccc3)ccc2[nH]1	> 500	> 500	> 500		
CCOC(=O)c1cc2cc(-c3cc(C(=O)NCc4ccc(CC(=O)O)cc4)nn3C)ccc2[nH]1	> 22	> 22		0.014	
CCCC(=O)c1cc2cc(C(N)=O)ccc2[nH]1	> 500	> 500	> 500		
CCOC(=O)c1cc2cc(-c3cc(C(=O)OC)nn3C)ccc2[nH]1	83	41	2.4		
CCOC(=O)c1cc2cc(-c3cncn3C)ccc2[nH]1	24	15	2.5		
CCNC(=O)c1cc2cc(C(N)=O)ccc2[nH]1	> 500	> 500	> 500		
CCOC(=O)c1cc2cc(-c3cc(C(=O)NCc4ccncc4)nn3C)ccc2[nH]1	> 500	> 500	0.09	0.36	
CCOC(=O)c1cc2cc(NS(C)(=O)=O)ccc2[nH]1	210	> 500	97		
Cn1nc(C(=O)NCc2ccc(C(=O)O)cc2)cc1-c1ccc2[nH]c(C(=O)O)cc2c1			25	56	Drug metabolism (Liver microsomes): Active
CC(=O)Nc1ccc2[nH]c(C3=NCCO3)cc2c1	> 500	> 500	220		
CCOC(=O)c1cc2cc(-c3cc(C(=O)NCc4ccc(C(=O)O)cc4)nn3C)ccc2[nH]1 [BI 4394]			0.001	0.004	IC50 (Cytochrome P450 3A4): > 30 µM; IC50 (Collagenase 3 [5]): 0.011 µM; IC50 (Collagenase 3 [6]): 0.031 µM; solubility [7]: 60 µg/mL (≈ 134 µM); logP [8]: 1.9; AUC (Rattus norvegicus [9]): 1109 nM.hr/ml; Vdss (Rattus norvegicus [10]): 0.26 L/kg; clearance [11]: 34 mL/min/kg; half-life [12]: 28.2 min; Cmax [13]: 1660 nM; AUC (Rattus norvegicus [14]): 4328 nM.hr/ml; bioavailability [15]: 39%; IC50 (Interstitial collagenase): > 22 µM; IC50 (Stromelysin-1): > 22 µM; IC50 (Matrilysin): > 22 µM; IC50 (Neutrophil collagenase): > 22 µM; IC50 [16]: 8.9 µM; IC50 (Stromelysin-2): 16 µM; IC50 [17]: > 22 µM; IC50 (Cytochrome P450 2C9): > 30 µM
CCOC(=O)c1cc2cc(C(N)=O)ccc2[nH]1	60	> 500			
CCOC(=O)c1cc2cc(-c3cc(C(=O)NCc4ccncc4)ncc3C)ccc2[nH]1	> 20	> 22	0.15	0.64	
CCOCc1cc2cc(-c3cc(C(=O)NCc4ccc(C(=O)O)cc4)nn3C)ccc2[nH]1			0.25	1.9	hepatic extraction ratio at 5 min [18]: 0.78
Cn1nc(C(=O)NCc2ccc(C(=O)O)cc2)cc1-c1ccc2[nH]ccc2c1 [BI 4395]			> 26		hepatic extraction ratio at 5 min [18]: 0.25
CCOC(=O)c1cc2cc(-c3ccncc3C)ccc2[nH]1	> 500	> 500	9.6		
CCOC(=O)c1cc2cc(-c3ccccn3)ccc2[nH]1	> 500	> 500	> 500		
CCOC(=O)c1cc2cc(-c3cc(C(=O)NCc4ccc(=O)[nH]c4)nn3C)ccc2[nH]1	> 24	11	0.12	0.28	
CCOC(=O)c1cc2cc(NC(C)=O)ccc2[nH]1	> 500	> 500	31		
CCOC(=O)c1cc2cc(-c3cccnc3)ccc2[nH]1	30	51	15		
CCOC(=O)c1cc2cc(-c3ccncc3)ccc2[nH]1	310	225	82		
